Test results from a compilation of properties of binary mixtures (doi:10.1007/s11814-009-0129-3).

Assay: xn = mol fraction of the nth substance listed
Details: 101 kPa

F[B-](F)(F)F.[Li+] + CCCC[n+]1ccn(C)c1.[I-]
electrical conductivity (298.15 K, x1 = 0.1): 0.0385 S/m
electrical conductivity (298.15 K, x1 = 0.3): 0.042 S/m
electrical conductivity (298.15 K, x1 = 0.4): 0.035 S/m
electrical conductivity (298.15 K, x1 = 0.5): 0.0312 S/m
electrical conductivity (303.15 K, x1 = 0.1): 0.0432 S/m
electrical conductivity (303.15 K, x1 = 0.2): 0.0477 S/m
electrical conductivity (303.15 K, x1 = 0.3): 0.0488 S/m
electrical conductivity (303.15 K, x1 = 0.4): 0.0392 S/m
electrical conductivity (303.15 K, x1 = 0.5): 0.0373 S/m
electrical conductivity (308.15 K, x1 = 0.2): 0.0515 S/m
electrical conductivity (308.15 K, x1 = 0.3): 0.0505 S/m
electrical conductivity (308.15 K, x1 = 0.4): 0.0461 S/m
electrical conductivity (308.15 K, x1 = 0.5): 0.0425 S/m
electrical conductivity (313.15 K, x1 = 0.1): 0.0519 S/m
electrical conductivity (313.15 K, x1 = 0.2): 0.0584 S/m
electrical conductivity (313.15 K, x1 = 0.3): 0.0512 S/m
electrical conductivity (313.15 K, x1 = 0.4): 0.0477 S/m
electrical conductivity (313.15 K, x1 = 0.5): 0.0463 S/m
electrical conductivity (318.15 K, x1 = 0.1): 0.0577 S/m
electrical conductivity (318.15 K, x1 = 0.2): 0.0704 S/m
electrical conductivity (318.15 K, x1 = 0.3): 0.0597 S/m
electrical conductivity (318.15 K, x1 = 0.4): 0.0513 S/m
electrical conductivity (318.15 K, x1 = 0.5): 0.0501 S/m
electrical conductivity (323.15 K, x1 = 0.1): 0.0647 S/m
electrical conductivity (323.15 K, x1 = 0.3): 0.088 S/m
electrical conductivity (323.15 K, x1 = 0.4): 0.0554 S/m
electrical conductivity (323.15 K, x1 = 0.5): 0.0549 S/m

CCCC[n+]1ccn(C)c1.[I-] + [Li+].[B-](F)(F)(F)F
electrical conductivity (298.15 K, x2 = 0): 0.0234 S/m
electrical conductivity (303.15 K, x2 = 0): 0.0262 S/m
electrical conductivity (313.15 K, x2 = 0): 0.0308 S/m
electrical conductivity (318.15 K, x2 = 0): 0.0326 S/m
electrical conductivity (323.15 K, x2 = 0): 0.0345 S/m
